Experimental data taken from PMC10740831, “Synthesis, Hydrolytic Stability and In Vivo Biological Study of Bioconjugates of the Tetrapeptides FELL Containing Pyrrole Moiety” (Biomedicines, 2023).
“Also recorded” adds a separate entry of the source. Peptide text beside a SMILES is read from it. * marks the point of attachment. X1 = CCOC(=O)c1c(C)[nH]c(C(=O)*)c1C; X2 = CCOC(=O)c1[nH]c(C)c(C(=O)*)c1C

Legend:
male Wistar rats = assay: Nociceptive Paw Pressure test (Randall–Selitto test), analgesic activity; format: in vivo, rat; conditions: 0.25 mg/kg i.p.; for course of analgesic activity over time (in words) / analgesic activity (paw pressure thresholds): Figure 6; for analgesic activity (paw pressure thresholds): male Wistar rats, 8–10 per group, measured every 10 min from 10th to 50th min; for highest analgesic activity reached, as percent of that of the parent acid: BB20A vs acid A, BB19B vs acid B
Procedure: The male Wistar rats (180–200 g) were used for all experiments. All animals were kept at around 22 °C and under normal conditions. The experimental procedures are realized in the interval 10:00 a.m. to 1:00 p.m. and are approved by the Research Ethics Commission of the Medical University-Sofia.
(§1) Several groups of experimental animals were used. Each group contains 8–10 rats: • The control group receives 0.2 mL of saline intraperitoneally injected (i.p.); • Six experimental groups receiving one of the 6 tested substances (0.25 mg/kg, i.p.)—pyrrole acid A, pyrrole acid B, BB19A, BB19B, BB20A, and BB20B; • Four experimental groups receiving Naloxone (1 mg/kg, i.p.) before the administration of the newly synthesized bioconjugates BB19A, BB19B, BB20A, and BB20B; • Four experimental groups receiving AM251 (1.25 mg/kg, i.p.) before the administration of the newly synthesized bioconjugates BB19A, BB19B, BB20A, and BB20B.
(§2) An analgesiometer was used to measure the specific changes in the mechanical nociceptive thresholds (PPT) of experimental animals). A pressure was applied to the hind-paw and the value (g) required to elicit a nociceptive response (such as squeak or struggle) was taken as the mechanical nociceptive threshold. A cut-off value of 500 g was used to prevent damage of the paw. The targeted compounds were administrated and further nociception was evaluated each 10 min from the 10th min until the 50th min.
(§3) The results were statistically assessed by one-way analysis of variance followed by Newman-Keuls post hoc comparison test. One-Way ANOVA has been used to analyze the data. Values are represented in arbitrary units (AU) according to the scale, as mean ± S.E.M. Values of p < 0.05 were considered to indicate statistical significance.

opioid receptor = assay: Paw pressure test after Naloxone pretreatment; format: in vivo, rat; conditions: Naloxone 1 mg/kg i.p. before bioconjugate 0.25 mg/kg i.p.; compared with no pretreatment; Figure 7
Procedure: as §1
(§4) Pretreatments with the non-selective opioid receptor antagonist Naloxone or the cannabinoid receptor antagonist AM251 were performed in order to estimate the types of receptors engaged in the effects observed—respectively, the opioid or the cannabinoid receptor [35].
as §2, §3

cannabinoid receptor = assay: Paw pressure test after AM251 pretreatment; format: in vivo, rat; conditions: AM251 1.25 mg/kg i.p. before bioconjugate 0.25 mg/kg i.p.; for time points with paradoxically higher analgesia after AM251 pretreatment than without pretreatment: Figure 7
Procedure: as §1, §4, §2, §3

[1] = tested on: white blood cell accumulation in the bronchoalveolar fluid; conditions: cited from earlier work
From the text: In this context, tetrapeptide sequence H-FELL-OH is known from the literature as an anti-inflammatory agent.

[2] = previously evaluated in vivo; cited from earlier work
From the text: Parent compound FELL (Phe-Glu-Leu-Leu-OH) and four analogs of the tetrapeptide were previously evaluated in vivo for their analgesic activity.

Question: Which “duration of short-lasting analgesic activity” value (male Wistar rats) does the source give for `CCOC(=O)c1[nH]c(C)c(C(=O)O)c1C` [acid B, 5-(Ethoxycarbonyl)-2,4-dimethyl-1H-pyrrole-3-carboxylic Acid] here?
Answer: The value was “about 10 min”.

Question: And the “time window of short-lasting analgesic activity” value (male Wistar rats)?
Answer: The value was “between the 20th and 30th min”.

Question: And the “PPTs on the 50th min compared with controls” value (male Wistar rats; 50th min)?
Answer: Its value is “almost equivalent to the controls’”.

Question: What does the source list for “B-Phe-Glu-Leu-Leu-NH2 [BB19B, bioconjugate of pyrrole acid B and tetrapeptide FELL-NH2]”?
Answer: analgesic activity / PPTs on the 10th min compared with parent pyrrole acid (male Wistar rats): more significant than the parent beta acid; variation of analgesic activity during the whole time of the experiment (male Wistar rats; 10th to 50th min): less than 7%; course of analgesic activity over time (in words) (male Wistar rats; 10th to 50th min): sustained analgesic activity; analgesic activity on the 50th min compared with parent pyrrole acid (male Wistar rats; 50th min): more significant than the parent beta acid; analgesic activity (paw pressure thresholds) (male Wistar rats): exhibited analgesic activity; highest analgesic activity reached, as percent of that of the parent acid (male Wistar rats): 64.4%; analgesic activity after opioid receptor blockade (Naloxone pretreatment), in words (opioid receptor): significant analgesia that even initially exceeded that of the substances without the pretreatment; time points with paradoxically higher analgesia after AM251 pretreatment than without pretreatment (cannabinoid receptor): 10th, 20th, and 30th min

Question: For `CCOC(=O)c1c(C)[nH]c(C(=O)N[C@@H](Cc2ccccc2)C(=O)N[C@@H](CCC(=O)O)C(=O)N[C@@H](CC(C)C)C(=O)N[C@@H](CC(C)C)C(N)=O)c1C` [BB19A, A-Phe-Glu-Leu-Leu-NH2] (X1-FELL-NH2), which “course of analgesic activity over time (in words)” value (male Wistar rats; 10th to 50th min) is on record?
Answer: Its value is “biphasic activity”.

Question: And the “analgesic activity on the 50th min compared with parent pyrrole acid” value (male Wistar rats; 50th min)?
Answer: Its value is “exceeded the parent alpha acid”.

Question: What about the “analgesic activity (paw pressure thresholds)” value (male Wistar rats) of the same molecule?
Answer: The value was “exhibited analgesic activity”.

Question: What about the “analgesic activity after opioid receptor blockade (Naloxone pretreatment), in words” value (opioid receptor) of the same molecule?
Answer: Its value is “significant analgesia that even initially exceeded that of the substances without the pretreatment; also recorded: naloxone-independent in the first phase and naloxone-dependent in the second”.

Question: What about the “time points with paradoxically higher analgesia after AM251 pretreatment than without pretreatment” value (cannabinoid receptor) of the same molecule?
Answer: Its value is 10th min.

Question: For “Phe-Glu-Leu-Leu-OH [H-FELL-OH, parent tetrapeptide known as an anti-inflammatory agent]”, which “reduction of the total number of white blood cell accumulation in the bronchoalveolar fluid in lungs” value [1] is on record?
Answer: The value was 51%.

Question: And the “analgesic activity over time (in words)” value [2]?
Answer: The value was “constantly increasing analgesic activity for the total time of the evaluation”.

Question: Which results are given for `CCOC(=O)c1c(C)[nH]c(C(=O)N[C@@H](Cc2ccccc2)C(=O)N[C@@H](CCC(=O)O)C(=O)N[C@@H](CC(C)C)C(=O)N[C@@H](CC(C)C)C(=O)O)c1C` [BB20A, A-Phe-Glu-Leu-Leu-OH] (X1-FELL-OH)?
Answer: course of analgesic activity over time (in words) (male Wistar rats; 10th to 50th min): decreased to control values; analgesic activity (paw pressure thresholds) (male Wistar rats): exhibited analgesic activity; highest analgesic activity reached, as percent of that of the parent acid (male Wistar rats): more than 87%; analgesic activity after opioid receptor blockade (Naloxone pretreatment), in words (opioid receptor): Opioid receptors appear to be involved; involvement of cannabinoid receptors in the analgesic effect (AM251 pretreatment), in words (cannabinoid receptor): they “turn on” at a later stage—after the 20th minute; time points with paradoxically higher analgesia after AM251 pretreatment than without pretreatment (cannabinoid receptor): 10th min

Question: With `CCOC(=O)c1c(C)[nH]c(C(=O)O)c1C` [acid A, 4-(Ethoxycarbonyl)-3,5-dimethyl-1H-pyrrole-2-carboxylic Acid] as the molecule, how does the “duration of short-lasting analgesic activity” value (male Wistar rats) read?
Answer: Its value is “about 10 min”.

Question: What about the “time window of short-lasting analgesic activity” value (male Wistar rats) of the same molecule?
Answer: Its value is “between the 10th and 20th min”.

Question: What about the “decrease of analgesic activity until the end of the estimated time” value (male Wistar rats; up to 50th min) of the same molecule?
Answer: The value was 56%.

Question: Which “analgesic activity over time (in words)” value [2] does the source give for “Phe-Glu-Leu-Leu-NH2 [C-terminal amide of the tetrapeptide FELL]” here?
Answer: The value was “gradually increased analgesic activity with time”.

Question: Which “analgesic activity / PPTs on the 10th min compared with parent pyrrole acid” value (male Wistar rats) does the source give for `CCOC(=O)c1[nH]c(C)c(C(=O)N[C@@H](Cc2ccccc2)C(=O)N[C@@H](CCC(=O)O)C(=O)N[C@@H](CC(C)C)C(=O)N[C@@H](CC(C)C)C(=O)O)c1C` [BB20B, B-Phe-Glu-Leu-Leu-OH] (X2-FELL-OH) here?
Answer: The value was “equivalent to the parent beta acid’s ones”.

Question: And the “course of analgesic activity over time (in words)” value (male Wistar rats; 10th to 50th min)?
Answer: Its value is “slowly decreased to control levels”.

Question: And the “analgesic activity (paw pressure thresholds)” value (male Wistar rats)?
Answer: The value was “exhibited analgesic activity”.

Question: And the “analgesic activity after opioid receptor blockade (Naloxone pretreatment), in words” value (opioid receptor)?
Answer: Its value is “Opioid receptors appear to be involved”.

Question: And the “involvement of cannabinoid receptors in the analgesic effect (AM251 pretreatment), in words” value (cannabinoid receptor)?
Answer: Its value is “Cannabinoid receptors are also involved”.
